# Patent US20230146455A1, “TREATMENT OF INFLAMMATORY DISEASES WITH PEPTIDES AND PHARMACEUTICAL COMPOSITIONS” (Yuyu Pharma, Inc., priority 2020, published 2023)
# “And” between values parts separate entries of the source, which are not always exact repeats. Identical values can stand only once. Where a SMILES comes first, the peptide text is derived from it. [ ]: non-standard residue; d: D form. Hyp = O=C(O)[C@@H]1C[C@@H](O)CN1
# System: CCL4/MIP-1 beta
# Assay: Example 9 Luminex, LPS hPBMCs: CCL4/MIP-1 beta
# Assay type: cell-based, human
# Details: for MFI (Bead name: CCL4/MIP-1 beta): dilution 10
# Method: Treatment Human PBMCs were pretreated with YY-101, YDE-011 and YDE-043 or reference compound; Xiidra® at various concentration (ranging from 1 nM to 100 uM) for 2 h before stimulation. An equal volume of 0.5% DMSO was used as a vehicle control. Then, the cells were treated with LPS at 5 ug/ml. The supernatants from treated cells were harvested at 24 h and placed in a 96 well for Luminex cytokine & chemokine profiling using a Luminex 200 multiplex assay (Luminex; R&D system, USA).
# The main study arm with triplicate wells per group in a 24-well plate: • 1. Blank • 2. PBMC: 0.5% DMSO • 3. PBMC+LPS (5 ug/ml) • 4. PBMC+YY-101 100 uM • 5. PBMC+YY-101 10 uM • 6. PBMC+YY-101 1 uM • 7. PBMC+YY-101 0.1 uM • 8. PBMC+YY-101 0.01 uM • 9. PBMC+LPS (5 ug/ml)+Xiidra®100 uM • 10. PBMC+LPS (5 ug/ml)+Xiidra® 10 uM • 11. PBMC+LPS (5 ug/ml)+Xiidra® 1 uM • 12. PBMC+LPS (5 ug/ml)+Xiidra®0.1 uM • 13. PBMC+LPS (5 ug/ml)+Xiidra®0.01 uM • 14. PBMC+LPS (5 ug/ml)+Xiidra®0.001 uM • 15. PBMC+LPS (5 ug/ml)+YY-101 100 uM • 16. PBMC+LPS (5 ug/ml)+YY-101 10 uM • 17. PBMC+LPS (5 ug/ml)+YY-101 1 uM • 18. PBMC+LPS (5 ug/ml)+YY-101 0.1 uM • 19. PBMC+LPS (5 ug/ml)+YY-101 0.01 uM • 20. PBMC+LPS (5 ug/ml)+YY-101 0.001 uM • 21. PBMC+LPS (5 ug/ml)+YDE-011 100 uM • 22. PBMC+LPS (5 ug/ml)+YDE-011 10 uM • 23. PBMC+LPS (5 ug/ml)+YDE-011 1 uM • 24. PBMC+LPS (5 ug/ml)+YDE-011 0.1 uM • 25. PBMC+LPS (5 ug/ml)+YDE-011 0.01 uM • 26. PBMC+LPS (5 ug/ml)+YDE-011 0.001 uM • 27. PBMC+LPS (5 ug/ml)+YDE-043 100 uM • 28. PBMC+LPS (5 ug/ml)+YDE-043 10 uM • 29. PBMC+LPS (5 ug/ml)+YDE-043 1 uM • 30. PBMC+LPS (5 ug/ml)+YDE-043 0.1 uM • 31. PBMC+LPS (5 ug/ml)+YDE-043 0.01 uM • 32. PBMC+LPS (5 ug/ml)+YDE-043 0.001 uM
# Multiplex assay was used to measure 30 cytokines and chemokines. The 1:2, 1:10 and 1:200 diluted cell supernatant and serial dilution of the standard were dispensed into a 96 well plate at 50 ul/well. Then, the pre-mixed cocktail of antibody-coated magnetic beads was dispensed at 50 ul/well and incubated at room temperature for 2 h in a horizontal orbital microplate shaker at 800±500 rpm. The beads were washed using a magnetic device to prevent loss. The biotin-antibody was dispensed in 50 ul of each well and incubated at room temperature for 1 h in a shaker at 800±500 rpm. After washing, streptavidin-PE was added at 50 ul/well and incubated at room temperature for 30 min in a shaker under the same conditions. Finally, after washing, wash buffer (100 ul/well) was added to the plate and incubated in a shaker for 2 min. The Luminex™ 200 setting were set according to the manufacturer's protocol. The data was calculated with a standard five-parameter logistic nonlinear regression analysis of the data (xPonent software 4.2, USA). The levels of cytokine/chemokine are normalized to the live cell counts (1×10^5 cells/mL) and presented as concentrations per mL (pg/mL or ng/mL).
# [1] = PBMC + LPS(5 ug/ml), test article 0.001 uM, Mean
# [2] = PBMC + LPS(5 ug/ml), test article 0.001 uM, single replicates
# [3] = PBMC + LPS(5 ug/ml), test article 0.01 uM, Mean
# [4] = PBMC + LPS(5 ug/ml), test article 0.01 uM, single replicates
# [5] = PBMC + LPS(5 ug/ml), test article 0.1 uM, Mean
# [6] = PBMC + LPS(5 ug/ml), test article 0.1 uM, single replicates
# [7] = PBMC + LPS(5 ug/ml), test article 1 uM, Mean
# [8] = PBMC + LPS(5 ug/ml), test article 1 uM, single replicates
# [9] = PBMC + LPS(5 ug/ml), test article 10 uM, Mean
# [10] = PBMC + LPS(5 ug/ml), test article 10 uM, single replicates
# [11] = PBMC + LPS(5 ug/ml), test article 100 uM, Mean
# [12] = PBMC + LPS(5 ug/ml), test article 100 uM, single replicates
# [13] = PBMC without LPS, test article 0.01 uM, Mean
# [14] = PBMC without LPS, test article 0.01 uM, single replicates
# [15] = PBMC without LPS, test article 0.1 uM, Mean
# [16] = PBMC without LPS, test article 0.1 uM, single replicates
# [17] = PBMC without LPS, test article 1 uM, Mean
# [18] = PBMC without LPS, test article 1 uM, single replicates
# [19] = PBMC without LPS, test article 10 uM, Mean
# [20] = PBMC without LPS, test article 10 uM, single replicates
# [21] = PBMC without LPS, test article 100 uM, Mean
# [22] = PBMC without LPS, test article 100 uM, single replicates
structure (smiles),measurement,setting,value
CC(C)C[C@H](NC(=O)CNC(=O)[C@H](CC(=O)O)NC(=O)[C@H](CCC(N)=O)NC(=O)CNC(=O)[C@@H]1C[C@@H](O)CN1)C(=O)N[C@@H](C)C(=O)NCC(=O)N1CCC[C@H]1C(=O)N[C@@H](CCCCN)C(=O)O [YY-101] (H-[Hyp]GQDGLAGPK-OH; N-terminus and C-terminus assumed),LPS-induced CCL4 (in words),"LPS 5 ug/mL 24 hrs, 100 uM to 1 nM",significantly reduced
same,Concentration (CCL4/MIP-1 beta),[1],13975.6 pg/mL
same,conc/live cell (CCL4/MIP-1 beta),[1],2183.3 pg/10^5
same,MFI (Bead name: CCL4/MIP-1 beta),[1],515.8
same,MFI (Bead name: CCL4/MIP-1 beta),[2],551.5 and 527.0 and 469.0
same,Concentration (CCL4/MIP-1 beta),[2],14562.9 pg/mL and 14163.0 pg/mL and 13200.9 pg/mL
same,conc/live cell (CCL4/MIP-1 beta),[2],2554.9 pg/10^5 and 1994.8 pg/10^5 and 2000.1 pg/10^5
same,Concentration (CCL4/MIP-1 beta),[3],15170.0 pg/mL
same,conc/live cell (CCL4/MIP-1 beta),[3],2461.1 pg/10^5
same,MFI (Bead name: CCL4/MIP-1 beta),[3],589.2
same,MFI (Bead name: CCL4/MIP-1 beta),[4],611.0 and 596.5 and 560.0
same,Concentration (CCL4/MIP-1 beta),[4],15520.6 pg/mL and 15288.8 pg/mL and 14700.8 pg/mL
same,conc/live cell (CCL4/MIP-1 beta),[4],2425.1 pg/10^5 and 2548.1 pg/10^5 and 2410.0 pg/10^5
same,Concentration (CCL4/MIP-1 beta),[5],15088.0 pg/mL
same,conc/live cell (CCL4/MIP-1 beta),[5],2590.9 pg/10^5
same,MFI (Bead name: CCL4/MIP-1 beta),[5],584.0
same,MFI (Bead name: CCL4/MIP-1 beta),[6],576.0 and 592.0 and 584.0
same,Concentration (CCL4/MIP-1 beta),[6],14959.4 pg/mL and 15216.6 pg/mL and 15088.1 pg/mL
same,conc/live cell (CCL4/MIP-1 beta),[6],2412.8 pg/10^5 and 2926.3 pg/10^5 and 2433.6 pg/10^5
same,Concentration (CCL4/MIP-1 beta),[7],14794.1 pg/mL
same,conc/live cell (CCL4/MIP-1 beta),[7],2273.3 pg/10^5
same,MFI (Bead name: CCL4/MIP-1 beta),[7],565.8
same,MFI (Bead name: CCL4/MIP-1 beta),[8],594.0 and 556.5 and 547.0
same,Concentration (CCL4/MIP-1 beta),[8],15248.7 pg/mL and 14644.0 pg/mL and 14489.7 pg/mL
same,conc/live cell (CCL4/MIP-1 beta),[8],2420.4 pg/10^5 and 2062.5 pg/10^5 and 2337.0 pg/10^5
same,Concentration (CCL4/MIP-1 beta),[9],15474.9 pg/mL
same,conc/live cell (CCL4/MIP-1 beta),[9],2351.1 pg/10^5
same,MFI (Bead name: CCL4/MIP-1 beta),[9],608.3
same,MFI (Bead name: CCL4/MIP-1 beta),[10],614.0 and 651.0 and 560.0
same,Concentration (CCL4/MIP-1 beta),[10],15568.4 pg/mL and 16155.4 pg/mL and 14700.8 pg/mL
same,conc/live cell (CCL4/MIP-1 beta),[10],2594.7 pg/10^5 and 2524.3 pg/10^5 and 1934.3 pg/10^5
same,Concentration (CCL4/MIP-1 beta),[11],13712.9 pg/mL
same,conc/live cell (CCL4/MIP-1 beta),[11],2374.0 pg/10^5
same,MFI (Bead name: CCL4/MIP-1 beta),[11],499.8
same,MFI (Bead name: CCL4/MIP-1 beta),[12],537.0 and 474.5 and 488.0
same,Concentration (CCL4/MIP-1 beta),[12],14326.7 pg/mL and 13293.2 pg/mL and 13518.7 pg/mL
same,conc/live cell (CCL4/MIP-1 beta),[12],2274.1 pg/10^5 and 2144.1 pg/10^5 and 2703.7 pg/10^5
same,conc/live cell (CCL4/MIP-1 beta),[13],0.0 pg/10^5
same,MFI (Bead name: CCL4/MIP-1 beta),[13],0.0
same,MFI (Bead name: CCL4/MIP-1 beta),[14],0.0
same,conc/live cell (CCL4/MIP-1 beta),[14],0.0 pg/10^5
same,conc/live cell (CCL4/MIP-1 beta),[15],0.0 pg/10^5
same,MFI (Bead name: CCL4/MIP-1 beta),[15],0.0
same,MFI (Bead name: CCL4/MIP-1 beta),[16],0.0
same,conc/live cell (CCL4/MIP-1 beta),[16],0.0 pg/10^5
same,conc/live cell (CCL4/MIP-1 beta),[17],0.0 pg/10^5
same,MFI (Bead name: CCL4/MIP-1 beta),[17],−0.8
same,MFI (Bead name: CCL4/MIP-1 beta),[18],−1.0 and −0.5
same,conc/live cell (CCL4/MIP-1 beta),[18],0.0 pg/10^5
same,Concentration (CCL4/MIP-1 beta),[19],1948.5 pg/mL
same,conc/live cell (CCL4/MIP-1 beta),[19],152.2 pg/10^5
same,MFI (Bead name: CCL4/MIP-1 beta),[19],5.5
same,MFI (Bead name: CCL4/MIP-1 beta),[20],10.0 and 1.0
same,Concentration (CCL4/MIP-1 beta),[20],1948.5 pg/mL
same,conc/live cell (CCL4/MIP-1 beta),[20],304.4 pg/10^5 and 0.0 pg/10^5
same,Concentration (CCL4/MIP-1 beta),[21],1360.7 pg/mL
same,conc/live cell (CCL4/MIP-1 beta),[21],207.4 pg/10^5
same,MFI (Bead name: CCL4/MIP-1 beta),[21],6.5
same,MFI (Bead name: CCL4/MIP-1 beta),[22],10.0 and 3.0
same,Concentration (CCL4/MIP-1 beta),[22],1948.5 pg/mL and 772.9 pg/mL
same,conc/live cell (CCL4/MIP-1 beta),[22],304.4 pg/10^5 and 110.4 pg/10^5
